We go through 15 compounds from patent publication US20260007758A1, “SO[…]-2 RECEPTOR (SST2R) NON-PEPTIDE DRUG CONJUGATES AND USES THEREOF” (Crinetics Pharmaceuticals, Inc., priority 2024, published 2026).

SMILES strings stand for the structures.

Holding throughout (format): cell-based
The target of assay [1] is T1, human somatostatin receptor subtype 2 (Homo sapiens, UniProt P30874).
T1 construct: expressed in transfected cells
Put plainly: Functional assay for SSTR2 agonists (HTRF cAMP). The following applies: CHO-K1 cells stably expressing human SST2; NKH477-stimulated cAMP; 20 min at 37 C; read-out: hSST2 cAMP Avg EC50. The procedure, abridged:
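CHO-K1 cells stably expressing human SSTR2 treated with compound (typically 0-10,000 nM final) for 20 min at 37 °C. Lysate cAMP measured by HTRF (665/620 nm ratio), converted via standard curve; EC50 from cAMP vs concentration.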

In assay [2] the test system is NCI-H524 human small cell lung cancer cells. Put plainly: H524 assay: inhibition of cell proliferation (CellTiter Glo). The following applies: 2 h treatment, washout, additional 70 h incubation. The procedure, abridged: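 NCI-H524 cells were exposed for 2 h to NDC in an 11-point two-fold series starting at 1 uM. The drug was then washed out and cells grew a further 70 h. CellTiter Glo luminescence gave % inhibition versus untreated control, and IC50 came from a four-parameter nonlinear regression.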
Background: In ATP-based viability assays light output follows the ATP content of the culture.

The target in the next assay is T2, SST2 (Homo sapiens, UniProt P30874).
T2 construct: host or cells: PathHunter CHO-K1 SST2 cells
Put plainly: PathHunter CHO-K1 SST2 Internalization Assay. Conditions: PathHunter CHO-K1 SST2 cells; 90 min at 37 C; luminescence; read-out: Internalization EC50. The procedure, abridged: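 CHO-K1 cells expressing human SST2, 2500 cells/well, grown 48 h, then exposed 90 min at 37 C to 11-point 1:3 NDC dilutions (final top 10 uM). Beta-Glo luminescence after 60 min at room temperature; four-parameter IC50, duplicate mean, background-corrected.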

T2 sequence (P30874 whole entry): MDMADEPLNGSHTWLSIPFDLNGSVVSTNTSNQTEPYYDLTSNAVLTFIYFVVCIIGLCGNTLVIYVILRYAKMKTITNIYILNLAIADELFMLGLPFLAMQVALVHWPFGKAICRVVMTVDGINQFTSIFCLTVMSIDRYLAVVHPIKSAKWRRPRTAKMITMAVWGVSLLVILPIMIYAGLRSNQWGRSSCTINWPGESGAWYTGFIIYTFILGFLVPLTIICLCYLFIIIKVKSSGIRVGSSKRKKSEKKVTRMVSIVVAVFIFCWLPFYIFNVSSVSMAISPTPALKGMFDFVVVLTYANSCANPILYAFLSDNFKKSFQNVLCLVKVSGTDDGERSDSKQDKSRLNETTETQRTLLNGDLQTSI
T1 sequence (P30874 whole entry): as above

For `CC[C@H](C)[C@@H]([C@@H](CC(=O)N1CCC[C@H]1[C@H](OC)[C@@H](C)C(=O)N[C@H](C)[C@@H](O)c1ccccc1)OC)N(C)C(=O)[C@@H](NC(=O)[C@H](C(C)C)N(C)C(=O)OCc1ccc(NC(=O)[C@H](CCCNC(N)=O)NC(=O)[C@@H](NC(=O)c2cc(NC(=O)CCOCCC(=O)NCCNc3ncc(-c4cc(C)cc(F)c4)c(N4CCC(N)CC4)c3-c3nc4ccc(Cl)cc4[nH]3)cc(C(=O)NCC(=O)O)c2)C(C)C)cc1)C(C)C` [Compound 149], the values for the EC50 (in assay [1]; in assay [2]; at SST2) were 0.033 nM, 100 nM and 12 nM, respectively.

`CC[C@@H](C)[C@H]([C@H](CC(=O)N1CCCC1[C@@H](OC)[C@H](C)C(=O)N[C@@H](C)[C@H](O)c1ccccc1)OC)N(C)C(=O)[C@H](NC(=O)[C@@H](C(C)C)N(C)C(=O)OCc1ccc(NC(=O)[C@@H](C)NC(=O)[C@H](NC(=O)[C@@H](CCCO)NC(=O)CCOCCC(=O)NCCNc2ncc(-c3cc(C)cc(F)c3)c(N3CCC(N)CC3)c2-c2nc3ccc(Cl)cc3[nH]2)C(C)C)c(O[C@H]2O[C@@H](C(=O)O)[C@H](O)[C@@H](O)[C@@H]2O)c1)C(C)C` (stereo partly drawn) [Compound 239]: the EC50 (as a rule, the concentration giving half of the maximal effect) in assay [1] came out at 0.16 nM; in assay [2], 12 nM; on SST2, 4.9 nM.

For `CC[C@H](C)[C@@H]([C@@H](CC(=O)N1CCC[C@H]1[C@H](OC)[C@@H](C)C(=O)N[C@H](C)[C@@H](O)c1ccccc1)OC)N(C)C(=O)[C@@H](NC(=O)[C@H](C(C)C)N(C)C(=O)OCc1ccc(NC(=O)[C@H](C)NC(=O)[C@@H](NC(=O)CCOCCC(=O)NCCNc2ncc(-c3cncc(C)c3)c(N3CCC(N)CC3)c2-c2nc3ccc(Cl)cc3[nH]2)C(C)C)c(O[C@@H]2O[C@H](C(=O)O)[C@@H](O)[C@H](O)[C@H]2O)c1)C(C)C` [Compound 129], the results for the EC50 (in assay [1]; in assay [2]; on SST2) were 190 nM, 3000 nM and 960 nM, respectively.

As for `CC[C@H](C)[C@@H]([C@@H](CC(=O)N1CCC[C@H]1[C@H](OC)[C@@H](C)C(=O)N[C@H](C)[C@@H](O)c1ccccc1)OC)N(C)C(=O)[C@@H](NC(=O)[C@H](C(C)C)N(C)C(=O)OCc1ccc(NC(=O)[C@H](C)NC(=O)[C@@H](NC(=O)[C@H](CCc2nnn[nH]2)NC(=O)CCOCCC(=O)NCCNc2ncc(-c3cc(C)cc(F)c3)c(N3CCC(N)CC3)c2-c2nc3ccc(Cl)cc3[nH]2)C(C)C)cc1C(=O)NCCN)C(C)C` [Compound 66], the EC50 in assay [1] is 0.14 nM; in assay [2], 6.8 nM; on SST2, 5.6 nM.

As to `CC[C@H](C)[C@@H]([C@@H](CC(=O)N1CCC[C@H]1[C@H](OC)[C@@H](C)C(=O)N[C@H](C)[C@@H](O)c1ccccc1)OC)N(C)C(=O)[C@@H](NC(=O)[C@H](C(C)C)N(C)C(=O)OCc1ccc(NC(=O)[C@H](CCCNC(N)=O)NC(=O)[C@@H](NC(=O)CCOCCOCCC(=O)NCCNc2ncc(-c3cc(C)cc(F)c3)c(N3CCC(N)CC3)c2-c2nc3ccc(Cl)cc3[nH]2)C(C)C)cc1C(=O)NCCNC(=O)CCCCCCCCCCC(=O)O)C(C)C` [Compound 83], the EC50 in assay [1] is 0.53 nM; in assay [2] it was 310 nM; at SST2, 7 nM.

Turning to `CC[C@H](C)[C@@H]([C@@H](CC(=O)N1CCC[C@H]1[C@H](OC)[C@@H](C)C(=O)N[C@H](C)[C@@H](O)c1ccccc1)OC)N(C)C(=O)[C@@H](NC(=O)[C@H](C(C)C)N(C)C(=O)OCc1ccc(NC(=O)[C@H](CCCNC(N)=O)NC(=O)[C@@H](NC(=O)CCOCCC(=O)NCCNc2ncc(-c3cc(C)cc(F)c3)c(N3CCC(N)CC3)c2-c2nc3c(F)c(F)ccc3[nH]2)C(C)C)c(O[C@@H]2O[C@H](C(=O)O)[C@@H](O)[C@H](O)[C@H]2O)c1)C(C)C` [Compound 110], the EC50 in assay [1] came out at 1 nM; in assay [2] it was 120 nM; at SST2, 23 nM.

Consider `CC[C@H](C)[C@@H]([C@@H](CC(=O)N1CCC[C@H]1[C@H](OC)[C@@H](C)C(=O)N[C@H](C)[C@@H](O)c1ccccc1)OC)N(C)C(=O)[C@@H](NC(=O)[C@H](C(C)C)N(C)C(=O)OCc1ccc(NC(=O)[C@H](CCCNC(N)=O)NC(=O)[C@@H](NC(=O)[C@H](NC(=O)CCOCCC(=O)NCCNc2ncc(-c3cc(C)cc(F)c3)c(N3CCC(N)CC3)c2-c2nc3ccc(Cl)cc3[nH]2)c2cnn(C)c2)C(C)C)c(OCC(=O)O)c1)C(C)C` [Compound 204], for which the EC50 in assay [1] was determined as 0.14 nM; in assay [2], 30 nM; on SST2 it was 9.2 nM.

In the case of `CC[C@H](C)[C@@H]([C@@H](CC(=O)N1CCC[C@H]1[C@H](OC)[C@@H](C)C(=O)N[C@H](C)[C@@H](O)c1ccccc1)OC)N(C)C(=O)[C@@H](NC(=O)C(C(C)C)N(C)C(=O)OCc1ccc(NC(=O)[C@H](CCCNC(N)=O)NC(=O)[C@@H](NC(=O)CCOCCC(=O)NCCNc2ncc(-c3cc(C)cc(F)c3)c(N3CCC(N)CC3)c2-c2nc3ccc(Cl)cc3[nH]2)C(C)C)c(O[C@@H]2O[C@H](C(=O)N3CCN(C)CC3)[C@@H](O)[C@H](O)[C@H]2O)c1)C(C)C` (stereo partly drawn) [Compound 226], the EC50 in assay [1] was 0.28 nM; in assay [2], 4.3 nM; at SST2 it was 9.3 nM.

Turning to `CC[C@H](C)[C@@H]([C@@H](CC(=O)N1CCC[C@H]1[C@H](OC)[C@@H](C)C(=O)N[C@H](C)[C@@H](O)c1ccccc1)OC)N(C)C(=O)[C@@H](NC(=O)[C@H](C(C)C)N(C)C(=O)OCc1ccc(NC(=O)[C@H](CCCNC(N)=O)NC(=O)[C@@H](NC(=O)[C@H](CCC(=O)O)NC(=O)CCOCCC(=O)NCCNc2ncc(-c3cc(C)cc(F)c3)c(N3CCC(N)CC3)c2-c2nc3ccc(Cl)cc3[nH]2)C(C)C)cc1C(=O)NOC)C(C)C` [Compound 89], the EC50 stood at 0.57 nM in assay [1], 1100 nM in assay [2] and 3.6 nM at SST2.

Regarding `CC[C@H](C)[C@@H]([C@@H](CC(=O)N1CCC[C@H]1[C@H](OC)[C@@H](C)C(=O)N[C@H](C)[C@@H](O)c1ccccc1)OC)N(C)C(=O)[C@@H](NC(=O)[C@H](C(C)C)N(C)C(=O)OCc1ccc(NC(=O)[C@H](CCCNC(N)=O)NC(=O)[C@@H](NC(=O)CCOCCOCCC(=O)NCCNc2ncc(-c3cc(C)cc(F)c3)c(N3CCC(N)CC3)c2-c2nc3ccc(Cl)cc3[nH]2)C(C)C)cc1C(=O)NCCNC(=O)CCOCCOCCOCCOCCC(=O)O)C(C)C` [Compound 74], the results for the EC50 (in assay [1]; in assay [2]; on SST2) were 0.19 nM, 17 nM and 4.3 nM, respectively.

With `CC[C@H](C)[C@@H]([C@@H](CC(=O)N1CCC[C@H]1[C@H](OC)[C@@H](C)C(=O)N[C@H](C)[C@@H](O)c1ccccc1)OC)N(C)C(=O)[C@@H](NC(=O)[C@H](C(C)C)N(C)C(=O)OCc1ccc(NC(=O)[C@H](C)NC(=O)[C@@H](NC(=O)CCOCCC(=O)N(C)CC(=O)NCCNc2ncc(-c3cc(C)cc(F)c3)c(N3CCC(N)CC3)c2-c2nc3ccc(Cl)cc3[nH]2)C(C)C)c(O[C@@H]2O[C@H](C(=O)NCC(=O)O)[C@@H](O)[C@H](O)[C@H]2O)c1)C(C)C` [Compound 42], the EC50 in assay [1] stood at 0.1 nM; in assay [2], 25 nM; on SST2, 3.8 nM.

With `CC[C@H](C)[C@@H]([C@@H](CC(=O)N1CCC[C@H]1[C@H](OC)[C@@H](C)C(=O)N[C@H](C)[C@@H](O)c1ccccc1)OC)N(C)C(=O)[C@@H](NC(=O)[C@H](C(C)C)N(C)C(=O)OCc1ccc(NC(=O)[C@H](C)NC(=O)[C@@H](NC(=O)CCOCCC(=O)NCCNc2ncc(-c3cc(C)cc(F)c3)c(N3CC[C@H]4NCCO[C@@H]4C3)c2-c2nc3ccc(Cl)cc3[nH]2)C(C)C)c(O[C@@H]2O[C@H](C(=O)O)[C@@H](O)[C@H](O)[C@H]2O)c1)C(C)C` [Compound 113], the EC50 in assay [1] came out at 110 nM; in assay [2], 2000 nM; on SST2, 1300 nM.

For the compound `CC[C@H](C)[C@@H]([C@@H](CC(=O)N1CCC[C@H]1[C@H](OC)[C@@H](C)C(=O)N[C@H](C)[C@@H](O)c1ccccc1)OC)N(C)C(=O)[C@@H](NC(=O)[C@H](C(C)C)N(C)C(=O)OCc1ccc(NC(=O)[C@H](CCCNC(N)=O)NC(=O)[C@@H](NC(=O)CCOCCC(=O)NCCCNc2ncc(-c3cc(C)cc(F)c3)c(N3CCC(N)CC3)c2-c2nc3ccc(Cl)cc3[nH]2)C(C)C)c(O[C@@H]2O[C@H](C(=O)O)[C@@H](O)[C@H](O)[C@H]2O)c1)C(C)C` [Compound 195], the EC50 stood at 0.35 nM in assay [1], 8.5 nM in assay [2] and 4.1 nM at SST2.

Consider `CC[C@H](C)[C@@H]([C@@H](CC(=O)N1CCC[C@H]1[C@H](OC)[C@@H](C)C(=O)N[C@H](C)[C@@H](O)c1ccccc1)OC)N(C)C(=O)[C@@H](NC(=O)[C@H](C(C)C)N(C)C(=O)OCc1ccc(NC(=O)[C@H](CCCNC(N)=O)NC(=O)[C@@H](NC(=O)C[C@@H](N)C(=O)NCCOCCC(=O)NCCNc2ncc(-c3cc(C)cc(F)c3)c(N3CCC(NC)CC3)c2-c2nc3ccc(Cl)cc3[nH]2)C(C)C)c(O[C@@H]2O[C@H](C(=O)O)[C@@H](O)[C@H](O)[C@H]2O)c1)C(C)C` [Compound 121], for which the EC50 amounted to 0.14 nM in assay [1], 19 nM in assay [2] and 5.3 nM on SST2.

For the compound `CC[C@H](C)[C@@H]([C@@H](CC(=O)N1CCC[C@H]1[C@H](OC)[C@@H](C)C(=O)N[C@H](C)[C@@H](O)c1ccccc1)OC)N(C)C(=O)[C@@H](NC(=O)[C@H](C(C)C)N(C)C(=O)OCc1ccc(NC(=O)[C@H](CCCNC(N)=O)NC(=O)[C@@H](NC(=O)CCOCCC(=O)NCCNc2ncc(-c3cc(C)cc(F)c3)c(N3CCC(N)CC3)c2-c2nc3ccc(Cl)cc3[nH]2)C(C)C)c(O[C@@H]2O[C@H](C(=O)NCCC(=O)O)[C@@H](O)[C@H](O)[C@H]2O)c1)C(C)C` [Compound 49], the EC50 turned out to be 0.14 nM in assay [1], 9.4 nM in assay [2] and 3.4 nM at SST2.
